Earlier results in patent US20040265381A1, “Anti-asthmatic drug (asmakure) from indigenous herbs to cure the disease asthma” (priority 2001, published 2004).

For `CCN(CC)CC#CCOC(=O)C(O)(c1ccccc1)C1CCCCC1.Cl` (stereo not drawn) [Oxybutynin, α-cyclohexyl-α-hydroxybenzeneacetic acid 4-(diethylamino)-2-butynyl ester hydrochloride], the “start of pharmacological action” value (following oral administration) is listed as “within one hour” and the half-life (in vivo) is listed as “less than 2 hours”.
